The target of assay [1] is Serine/threonine-protein kinase 24 (Homo sapiens) (UniProt Q9Y6E0). In words: Binding affinity to wild-type human partial length MST3 (A30 to S311 residues) expressed in bacterial expression system assessed as residual binding level at 10 uM by Kinomescan method relative to control.
Assay [2] deals with Serine/threonine-protein kinase tousled-like 1 (Homo sapiens) (UniProt Q9UKI8). Nature of the assay: Binding affinity to wild-type human partial length TLK1 (K447 to A754 residues) expressed in bacterial expression system assessed as residual binding level at 10 uM by Kinomescan method relative to control.
Assay [3] has as its target 5'-AMP-activated protein kinase catalytic subunit alpha-1 (Homo sapiens) (UniProt Q13131). Nature of the assay: Binding affinity to wild-type human partial length AMPK alpha1 (M1 to E306 residues) expressed in bacterial expression system assessed as residual binding level at 10 uM by Kinomescan method relative to control.
Assay [4] deals with Ribosomal protein S6 kinase alpha-3 (Homo sapiens) (UniProt P51812). In words: Binding affinity to wild-type human partial length C-terminal RSK2 kinase domain 2 (V402 to S715 residues) expressed in mammalian expression system assessed as residual binding level at 10 uM by Kinomescan method relative to control.
The target of assay [5] is ALK tyrosine kinase receptor (Homo sapiens) (UniProt Q9UM73). In words: Binding affinity to wild-type human partial length ALK (I1088 to E1409 residues) expressed in mammalian expression system assessed as residual binding level at 10 uM by Kinomescan method relative to control.
Assay [6] addresses Activin receptor type-2B (Homo sapiens) (UniProt Q13705). Nature of the assay: Binding affinity to wild-type human ACVR2B (H169 to D504 residues) expressed in bacterial expression system assessed as residual binding level at 10 uM by Kinomescan method relative to control.
The target of assay [7] is Aurora kinase C (Homo sapiens) (UniProt Q9UQB9). Nature of the assay: Binding affinity to wild-type human full length AURKC (M1 to S275 residues) expressed in bacterial expression system assessed as residual binding level at 10 uM by Kinomescan method relative to control.
Assay [8] deals with Casein kinase I isoform delta (Homo sapiens) (UniProt P48730). Nature of the assay: Binding affinity to wild-type human full length CSNK1D (M1 to K409 residues) expressed in bacterial expression system assessed as residual binding level at 10 uM by Kinomescan method relative to control.
The target of assay [9] is Ephrin type-B receptor 4 (Homo sapiens) (UniProt P54760). Nature of the assay: Binding affinity to wild-type human partial length EPHB4 (H585 to G892 residues) expressed in bacterial expression system assessed as residual binding level at 10 uM by Kinomescan method relative to control.
The target in assay [10] is Ephrin type-A receptor 6 (Homo sapiens) (UniProt Q9UF33). In words: Binding affinity to wild-type human partial length EPHA6 (Y700 to E1046 residues) expressed in bacterial expression system assessed as residual binding level at 10 uM by Kinomescan method relative to control.
Assay [11] has as its target Ribosomal protein S6 kinase alpha-4 (Homo sapiens) (UniProt O75676). In words: Binding affinity to wild-type human partial length N-terminal RPS6KA4 kinase domain 1 expressed in bacterial expression system assessed as residual binding level at 10 uM by Kinomescan method relative to control.
Assay [12] addresses Serine/threonine-protein kinase PAK 6 (Homo sapiens) (UniProt Q9NQU5). Nature of the assay: Binding affinity to wild-type human partial length PAK6 (N298 to C681 residues) expressed in bacterial expression system assessed as residual binding level at 10 uM by Kinomescan method relative to control.
Assay [13] concerns the target Calcium/calmodulin-dependent protein kinase type 1 (Homo sapiens) (UniProt Q14012). Nature of the assay: Binding affinity to wild-type human full length CAMK1 (M1 to L370 residues) expressed in bacterial expression system assessed as residual binding level at 10 uM by Kinomescan method relative to control.
Assay [14] has as its target Serine/threonine-protein kinase RIO1 (Homo sapiens) (UniProt Q9BRS2). Nature of the assay: Binding affinity to wild-type human full length RIOK1 (M1 to K568 residues) expressed in bacterial expression system assessed as residual binding level at 10 uM by Kinomescan method relative to control.
The target of assay [15] is Homeodomain-interacting protein kinase 1 (Homo sapiens) (UniProt Q86Z02). Nature of the assay: Binding affinity to wild-type human partial length HIPK1 (M146 to I555 residues) expressed in mammalian expression system assessed as residual binding level at 10 uM by Kinomescan method relative to control.
The target in assay [16] is Serine/threonine-protein kinase TAO2 (Homo sapiens) (UniProt Q9UL54). Nature of the assay: Binding affinity to wild-type human partial length TAOK2 (M1 to A320 residues) expressed in mammalian expression system assessed as residual binding level at 10 uM by Kinomescan method relative to control.
Assay [17] concerns the target Mitogen-activated protein kinase kinase kinase kinase 3 (Homo sapiens) (UniProt Q8IVH8). Nature of the assay: Binding affinity to wild-type human partial length MAP4K3 (M1 to D301 residues) expressed in bacterial expression system assessed as residual binding level at 10 uM by Kinomescan method relative to control.
The target of assay [18] is Rho-associated protein kinase 1 (Homo sapiens) (UniProt Q13464). Nature of the assay: Binding affinity to wild-type human partial length ROCK1 (M1 to R415 residues) expressed in mammalian expression system assessed as residual binding level at 10 uM by Kinomescan method relative to control.
Assay [19] concerns the target Serine/threonine-protein kinase 10 (Homo sapiens) (UniProt O94804). In words: Binding affinity to wild-type human partial length LOK (E16 to V314 residues) expressed in bacterial expression system assessed as residual binding level at 10 uM by Kinomescan method relative to control.
Assay [20] addresses Inhibitor of nuclear factor kappa-B kinase subunit beta (Homo sapiens) (UniProt O14920). Nature of the assay: Binding affinity to wild-type human full length IKK-beta (M1 to S756 residues) expressed in mammalian expression system assessed as residual binding level at 10 uM by Kinomescan method relative to control.
The target in assay [21] is Myotonin-protein kinase (Homo sapiens) (UniProt Q09013). Nature of the assay: Binding affinity to wild-type human partial length DMPK (V47 to V415 residues) expressed in bacterial expression system assessed as residual binding level at 10 uM by Kinomescan method relative to control.
The target in assay [22] is Serine/threonine-protein kinase MARK1 (Homo sapiens) (UniProt Q9P0L2). Nature of the assay: Binding affinity to wild-type human partial length MARK1 (Q30 to T341 residues) expressed in bacterial expression system assessed as residual binding level at 10 uM by Kinomescan method relative to control.
For assay [23], the target named is NT-3 growth factor receptor (Homo sapiens) (UniProt Q16288). Nature of the assay: Binding affinity to wild-type human partial length TRKC (Q531 to G825 residues) expressed in mammalian expression system assessed as residual binding level at 10 uM by Kinomescan method relative to control.
The target of assay [24] is Macrophage colony-stimulating factor 1 receptor (Homo sapiens) (UniProt P07333). Nature of the assay: Binding affinity to wild-type human partial length autoinhibited CSF1R (Y538 to S939 residues) expressed in mammalian expression system assessed as residual binding level at 10 uM by Kinomescan method relative to control.

Sequence of Activin receptor type-2B (Homo sapiens) (Q13705 whole entry, the tested form may be a part): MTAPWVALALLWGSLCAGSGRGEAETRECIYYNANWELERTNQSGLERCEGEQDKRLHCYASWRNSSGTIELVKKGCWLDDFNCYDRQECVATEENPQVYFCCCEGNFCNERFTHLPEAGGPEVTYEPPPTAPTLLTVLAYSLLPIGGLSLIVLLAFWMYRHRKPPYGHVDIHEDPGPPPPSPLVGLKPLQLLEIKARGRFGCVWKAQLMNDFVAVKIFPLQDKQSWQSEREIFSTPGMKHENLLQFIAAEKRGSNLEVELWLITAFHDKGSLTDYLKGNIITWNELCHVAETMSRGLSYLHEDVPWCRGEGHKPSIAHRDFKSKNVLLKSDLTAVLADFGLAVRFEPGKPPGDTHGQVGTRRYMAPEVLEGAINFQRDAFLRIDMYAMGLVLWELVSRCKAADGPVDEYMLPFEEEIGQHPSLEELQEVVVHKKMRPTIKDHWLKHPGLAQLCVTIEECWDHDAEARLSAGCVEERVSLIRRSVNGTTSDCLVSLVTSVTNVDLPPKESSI
Sequence of Serine/threonine-protein kinase PAK 6 (Homo sapiens) (Q9NQU5 whole entry, looked up, the tested form may be a part): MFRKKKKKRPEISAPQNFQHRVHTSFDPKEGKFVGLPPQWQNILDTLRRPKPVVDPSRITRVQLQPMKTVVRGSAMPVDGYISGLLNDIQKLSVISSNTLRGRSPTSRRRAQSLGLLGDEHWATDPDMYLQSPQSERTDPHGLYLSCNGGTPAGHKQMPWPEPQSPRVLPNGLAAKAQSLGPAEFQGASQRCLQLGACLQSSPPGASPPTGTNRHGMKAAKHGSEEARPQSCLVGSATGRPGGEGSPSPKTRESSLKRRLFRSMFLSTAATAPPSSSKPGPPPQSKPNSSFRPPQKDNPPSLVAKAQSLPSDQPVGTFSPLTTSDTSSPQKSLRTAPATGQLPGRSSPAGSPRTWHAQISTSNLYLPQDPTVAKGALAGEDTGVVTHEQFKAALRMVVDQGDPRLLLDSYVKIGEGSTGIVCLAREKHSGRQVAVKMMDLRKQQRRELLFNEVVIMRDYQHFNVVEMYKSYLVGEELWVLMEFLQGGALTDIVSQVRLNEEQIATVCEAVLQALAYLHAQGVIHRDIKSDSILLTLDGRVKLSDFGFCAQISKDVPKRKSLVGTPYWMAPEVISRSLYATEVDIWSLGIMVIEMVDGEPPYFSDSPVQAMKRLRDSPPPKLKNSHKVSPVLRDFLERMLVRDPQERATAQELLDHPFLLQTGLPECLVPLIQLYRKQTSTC
Sequence of Serine/threonine-protein kinase 24 (Homo sapiens) (Q9Y6E0 whole entry, looked up, the tested form may be a part): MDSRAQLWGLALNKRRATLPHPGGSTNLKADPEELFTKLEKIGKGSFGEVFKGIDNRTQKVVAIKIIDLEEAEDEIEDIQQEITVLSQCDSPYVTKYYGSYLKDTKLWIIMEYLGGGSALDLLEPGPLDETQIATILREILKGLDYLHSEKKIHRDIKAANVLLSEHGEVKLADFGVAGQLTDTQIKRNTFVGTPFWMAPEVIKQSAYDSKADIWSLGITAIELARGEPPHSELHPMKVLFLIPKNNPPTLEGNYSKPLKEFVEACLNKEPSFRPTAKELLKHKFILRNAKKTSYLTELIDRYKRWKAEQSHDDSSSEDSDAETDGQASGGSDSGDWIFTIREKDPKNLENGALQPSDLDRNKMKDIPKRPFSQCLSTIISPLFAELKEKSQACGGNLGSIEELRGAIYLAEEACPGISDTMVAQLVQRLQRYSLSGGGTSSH
Sequence of Rho-associated protein kinase 1 (Homo sapiens) (Q13464 2-1354 limits assumed): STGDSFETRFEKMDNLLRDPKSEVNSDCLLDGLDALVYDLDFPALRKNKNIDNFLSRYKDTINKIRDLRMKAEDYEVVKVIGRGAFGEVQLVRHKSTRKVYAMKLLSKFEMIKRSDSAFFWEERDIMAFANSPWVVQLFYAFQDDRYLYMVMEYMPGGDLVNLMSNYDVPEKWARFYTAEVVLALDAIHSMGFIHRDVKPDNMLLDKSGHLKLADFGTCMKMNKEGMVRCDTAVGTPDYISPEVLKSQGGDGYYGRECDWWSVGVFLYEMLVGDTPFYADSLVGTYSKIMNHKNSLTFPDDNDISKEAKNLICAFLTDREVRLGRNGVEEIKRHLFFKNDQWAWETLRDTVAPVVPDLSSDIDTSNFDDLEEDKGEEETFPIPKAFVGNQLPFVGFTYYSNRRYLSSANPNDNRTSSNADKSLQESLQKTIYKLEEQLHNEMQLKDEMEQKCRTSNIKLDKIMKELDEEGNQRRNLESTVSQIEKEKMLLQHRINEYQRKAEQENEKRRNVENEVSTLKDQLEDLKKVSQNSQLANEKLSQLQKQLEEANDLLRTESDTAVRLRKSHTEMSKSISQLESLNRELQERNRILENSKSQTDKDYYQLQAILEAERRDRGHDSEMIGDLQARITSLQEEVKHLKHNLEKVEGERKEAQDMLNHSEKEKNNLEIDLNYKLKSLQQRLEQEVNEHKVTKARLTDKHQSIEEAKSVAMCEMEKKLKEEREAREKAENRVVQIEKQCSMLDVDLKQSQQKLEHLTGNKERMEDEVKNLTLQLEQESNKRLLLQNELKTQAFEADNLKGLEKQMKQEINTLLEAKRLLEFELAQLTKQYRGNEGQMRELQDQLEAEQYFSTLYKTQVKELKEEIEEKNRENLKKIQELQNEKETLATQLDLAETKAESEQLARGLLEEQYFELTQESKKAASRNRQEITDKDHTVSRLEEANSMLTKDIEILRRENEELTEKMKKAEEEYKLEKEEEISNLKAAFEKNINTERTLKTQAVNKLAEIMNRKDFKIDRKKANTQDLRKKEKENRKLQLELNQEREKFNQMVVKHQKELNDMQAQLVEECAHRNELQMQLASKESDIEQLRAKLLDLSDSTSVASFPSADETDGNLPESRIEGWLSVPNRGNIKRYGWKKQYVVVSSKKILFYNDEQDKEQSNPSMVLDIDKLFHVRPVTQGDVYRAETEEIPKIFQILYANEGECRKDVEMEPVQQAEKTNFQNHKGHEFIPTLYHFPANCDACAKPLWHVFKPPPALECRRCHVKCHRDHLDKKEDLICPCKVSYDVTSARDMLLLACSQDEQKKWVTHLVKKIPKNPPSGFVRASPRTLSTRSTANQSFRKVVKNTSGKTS
Sequence of Serine/threonine-protein kinase TAO2 (Homo sapiens) (Q9UL54 whole entry, the tested form may be a part): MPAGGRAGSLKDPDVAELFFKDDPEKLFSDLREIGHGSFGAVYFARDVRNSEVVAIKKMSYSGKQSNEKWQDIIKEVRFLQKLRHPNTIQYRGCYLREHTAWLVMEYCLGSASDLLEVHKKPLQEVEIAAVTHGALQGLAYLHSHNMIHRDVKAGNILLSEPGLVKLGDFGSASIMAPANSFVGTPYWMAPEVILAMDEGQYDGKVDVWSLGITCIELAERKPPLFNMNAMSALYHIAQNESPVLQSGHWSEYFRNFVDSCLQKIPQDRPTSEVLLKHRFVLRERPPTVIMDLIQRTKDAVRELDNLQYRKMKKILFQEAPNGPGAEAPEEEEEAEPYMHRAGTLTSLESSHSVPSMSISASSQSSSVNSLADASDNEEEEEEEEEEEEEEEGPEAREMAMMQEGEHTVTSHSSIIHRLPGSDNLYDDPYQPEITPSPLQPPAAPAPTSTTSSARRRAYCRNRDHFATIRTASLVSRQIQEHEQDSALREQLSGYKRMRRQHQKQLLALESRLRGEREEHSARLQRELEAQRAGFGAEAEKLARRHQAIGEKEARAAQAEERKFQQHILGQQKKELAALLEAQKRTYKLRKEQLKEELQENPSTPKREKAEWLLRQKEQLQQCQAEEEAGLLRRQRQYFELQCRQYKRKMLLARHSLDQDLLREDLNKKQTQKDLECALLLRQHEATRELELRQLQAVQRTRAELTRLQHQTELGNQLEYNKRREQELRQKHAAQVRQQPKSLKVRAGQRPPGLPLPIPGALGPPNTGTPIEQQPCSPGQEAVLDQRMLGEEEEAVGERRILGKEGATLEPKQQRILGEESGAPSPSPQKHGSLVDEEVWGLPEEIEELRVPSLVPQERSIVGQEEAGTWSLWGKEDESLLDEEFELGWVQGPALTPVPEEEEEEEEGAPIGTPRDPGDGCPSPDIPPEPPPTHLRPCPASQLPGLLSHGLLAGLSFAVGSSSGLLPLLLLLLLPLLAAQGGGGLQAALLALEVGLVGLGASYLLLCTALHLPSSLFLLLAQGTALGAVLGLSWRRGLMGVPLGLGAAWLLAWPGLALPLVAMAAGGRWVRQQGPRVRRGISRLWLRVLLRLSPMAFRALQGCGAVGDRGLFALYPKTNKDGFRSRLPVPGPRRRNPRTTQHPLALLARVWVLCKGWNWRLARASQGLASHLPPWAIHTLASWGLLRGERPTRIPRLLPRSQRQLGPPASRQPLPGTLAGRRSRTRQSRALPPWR
Sequence of Serine/threonine-protein kinase RIO1 (Homo sapiens) (Q9BRS2 whole entry, the tested form may be a part): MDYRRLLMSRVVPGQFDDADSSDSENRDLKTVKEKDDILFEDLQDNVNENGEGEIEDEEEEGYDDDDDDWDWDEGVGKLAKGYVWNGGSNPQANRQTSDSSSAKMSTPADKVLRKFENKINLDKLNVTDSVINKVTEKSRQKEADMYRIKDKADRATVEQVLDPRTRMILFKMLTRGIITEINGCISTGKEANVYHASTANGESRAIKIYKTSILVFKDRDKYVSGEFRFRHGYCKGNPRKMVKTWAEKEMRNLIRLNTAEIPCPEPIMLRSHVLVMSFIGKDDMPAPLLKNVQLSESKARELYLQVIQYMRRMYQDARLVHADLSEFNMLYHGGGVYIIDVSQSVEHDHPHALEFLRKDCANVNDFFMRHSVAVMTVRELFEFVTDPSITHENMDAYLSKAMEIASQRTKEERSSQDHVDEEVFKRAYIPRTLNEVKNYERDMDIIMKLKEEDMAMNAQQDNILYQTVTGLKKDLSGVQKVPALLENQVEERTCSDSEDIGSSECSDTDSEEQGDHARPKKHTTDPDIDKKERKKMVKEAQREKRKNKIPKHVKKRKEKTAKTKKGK

With `CC(C)N1C(=O)C(NCCCN(C)C)=C(c2cn(C)c3ccccc23)C1=O.Cl`, the Activity in assay [1] is 100%; in [2], 100%; in [3], 93%; in [4] it was 87%; in assay [5] it was 100%; in assay [6], 96%. Besides, the Activity is 92% in [7]; 100% in [8]; 100% in [9]; 100% in assay [10]; 100% in assay [11]; 100% in [12]. Moreover, the Activity in [13] is 100%; in [14], 100%; in assay [15], 100%; in [16], 94%; in [17], 96%; in [18], 96%. Moreover, the Activity is 88% in [19]; 83% in [20]; 100% in [21]; 67% in assay [22]; 100% in assay [23]; 87% in assay [24].
